This is an account of results in patent US20040259176A1, “Structural basis for the guanine nucleotide-binding activity of tissue transglutaminase and its regulation of transamidation activity” (priority 2003, published 2004).

Common to all, as to assay type: cell-based, human
Assay [1] relates to MDAMB231 cells. Description: Nuclear condensation or blebbing assay (doxorubicin-induced apoptosis). The note with it: FIG. 11C. On the procedure: (§1) FIGS. 1A-D illustrate that the protective effect of EGF from doxorubicin-induced apoptosis is blocked by MDC in SKBR3 cells. In FIG. 11A, nearly confluent cultures of SKBR3 and MDAMB231 cells were placed in low serum medium. The following day, the cells were exposed to low serum medium +/−0.25 μM doxorubicin (Dox) for the times indicated and subsequently lysed. The presence of the activated form of caspase 3 (cleaved caspase 3) and actin (actin) in the cell extracts was assessed by Western blot analysis. In FIG. 11B, SKBR3 and MDAMB231 cells were maintained in low serum medium (0) or treated with 10 μM MDC (MDC) for 1.5 days. During this incubation, the SKBR3 cell cultures were also stimulated with +/−100 ng/ml EGF or +/−5 μM RA. All cell cultures were then treated with +/−0.25 μM doxorubicin (Dox) for about 1 day and the cells were scored for programmed cell death as described in Example 13. The assay was performed three times and the average percentage of cell death was plotted (FIG. 11C).
(§2) NIH3T3 cells were grown in Dulbecco's modified Eagle's medium containing 10% calf serum and 100 units/ml penicillin. SKBR3 and MDAMB231 cells were grown in RPMI 1640 medium containing 10% fetal bovine serum and 100 units/ml penicillin. The cell lines were maintained in a humidified atmosphere with 5% CO2 at 37° C. For the various treatments described, the cells were grown to near confluence in medium containing 10% serum, and then medium containing 1% serum or no serum with 5 μM RA, and/or 100 ng/ml EGF, +/−7 μM LY294002, and +/−0.2 μM doxorubicin were added for the appropriate amount of time. Cells were rinsed with phosphate-buffered saline (PBS) and then lysed with cell lysis buffer (10 mM Na2HPO4, 150 mM NaCl, 1% Triton X-100, 0.5% sodium deoxycholate, 0.1% SDS, 0.004% NaF, 1 mM NaVO4, 25 mM β-glycerophosphoric acid, 100 μg/ml phenylmethanesulfonyl fluoride, and 1 μg/ml each aprotinin and leupeptin, pH 7.35). The lysates were clarified by centrifugation at 12,000×g for 10 minutes at 4° C. Protein concentrations were determined using the Bio-Rad DC protein assay.
(§3) Cells were seeded in 6-well dishes and grown in complete medium for 2 days. The cells were then incubated in medium containing 1% serum +/−5 μM RA, +/−100 ng/ml EGF, and +/−10 μM MDC for 2 days. The cultures were then incubated with fresh medium containing RA, EGF, and MDC and +/−0.2 μM doxorubicin for an additional 1.5 days and were fixed and stained with 4,6-diamidino-2-phenylindole (2 μg/ml) for viewing by fluorescence microscopy. Apoptotic cells were identified by condensed nuclei and/or blebbing.

The test system of assay [2] is SKBR3 cells. The assay is described as above. As for the experimental part: as §1, §2, §3
In assay [3] the test system is MDAMB231 cells. The assay can be described thus: Western blot for cleaved (activated) caspase 3. The note with it: MDAMB231 cells exposed to doxorubicin; FIG. 11A. On the procedure:
as §1
(§4) NIH3T3 cells were grown in Dulbecco's modified Eagle's medium containing 10% calf serum and 100 units/ml penicillin. SKBR3 and MDAMB231 cells were grown in RPMI 1640 medium containing 10% fetal bovine serum and 100 units/ml penicillin. The cell lines were maintained in a humidified atmosphere with 5% CO2 at 37° C. […] Protein concentrations were determined using the Bio-Rad DC protein assay. […]
On the technique in general: Immunoblotting shows a protein as a band on a membrane.

Assay [4] deals with SKBR3 cells. The assay can be described thus: Western blot for cleaved (activated) caspase 3. The settings on record: 24 hours of incubation with doxorubicin, FIG. 11A. On the procedure:
as §1, §4

Take `CN(C)c1cccc2c(S(=O)(=O)NCCCCCN)cccc12` [MDC, monodansylcadaverine]: the “susceptibility to doxorubicin-induced apoptosis compared to doxorubicin treatment alone” value in the assay on MDAMB231 cells [1] (MDAMB231 cells, 10 μM MDC plus doxorubicin) was “slightly more than twice as susceptible”. Also, in the assay with SKBR3 cells [2] (SKBR3 cells incubated with MDC (10 μM), EGF and doxorubicin), the “effect on the pro-survival effect of EGF from doxorubicin-induced apoptosis” value was “nearly completely eliminated the pro-survival effect of EGF”.
In turn, `COc1cccc2c1C(=O)c1c(O)c3c(c(O)c1C2=O)C[C@@](O)(C(=O)CO)C[C@@H]3O[C@H]1C[C@H](N)[C@H](O)[C@H](C)O1` [doxorubicin] came in with an apoptotic rate with MDAMB231 cells [1] (MDAMB231 cells exposed to doxorubicin (0.25 μM)) of 25%. In addition, the “cells displaying nuclear condensation or blebbing” value in the assay with SKBR3 cells [2] (SKBR3 cells exposed to doxorubicin (0.25 μM, about 1 day), low serum, FIG. 11B) was roughly 80%. Moreover, the “cleaved form of caspase 3” value in the assay with MDAMB231 cells [3] is on record as “failed to induce the cleaved form of caspase 3 to the same extent as in SKBR3 cells”. In addition, in the assay on SKBR3 cells [4], the “cleaved or activated caspase 3” value was “easily detected”.
